Marks after values point to notes of the source that are not given here.

These results are taken from patent publication US9255093B2, “Polycyclic HERG activators” (NOVARTIS AG, priority 2014, dated 2016).

For the first data set, the target named is hERG (human ether-a-go-go-related gene) potassium channel (Homo sapiens, UniProt Q12809). Briefly: QPatch automated patch-clamp hERG activator 4-concentration EC50 assay. The following applies: increase of hERG tail current amplitude at 7 second (TL7); 3.3 uM (footnote *); hERG stably expressed in CHO cells. (In general: Patch clamp records ionic current or voltage across a cell membrane.)
hERG (human ether-a-go-go-related gene) potassium channel, sequence (Q12809 whole entry): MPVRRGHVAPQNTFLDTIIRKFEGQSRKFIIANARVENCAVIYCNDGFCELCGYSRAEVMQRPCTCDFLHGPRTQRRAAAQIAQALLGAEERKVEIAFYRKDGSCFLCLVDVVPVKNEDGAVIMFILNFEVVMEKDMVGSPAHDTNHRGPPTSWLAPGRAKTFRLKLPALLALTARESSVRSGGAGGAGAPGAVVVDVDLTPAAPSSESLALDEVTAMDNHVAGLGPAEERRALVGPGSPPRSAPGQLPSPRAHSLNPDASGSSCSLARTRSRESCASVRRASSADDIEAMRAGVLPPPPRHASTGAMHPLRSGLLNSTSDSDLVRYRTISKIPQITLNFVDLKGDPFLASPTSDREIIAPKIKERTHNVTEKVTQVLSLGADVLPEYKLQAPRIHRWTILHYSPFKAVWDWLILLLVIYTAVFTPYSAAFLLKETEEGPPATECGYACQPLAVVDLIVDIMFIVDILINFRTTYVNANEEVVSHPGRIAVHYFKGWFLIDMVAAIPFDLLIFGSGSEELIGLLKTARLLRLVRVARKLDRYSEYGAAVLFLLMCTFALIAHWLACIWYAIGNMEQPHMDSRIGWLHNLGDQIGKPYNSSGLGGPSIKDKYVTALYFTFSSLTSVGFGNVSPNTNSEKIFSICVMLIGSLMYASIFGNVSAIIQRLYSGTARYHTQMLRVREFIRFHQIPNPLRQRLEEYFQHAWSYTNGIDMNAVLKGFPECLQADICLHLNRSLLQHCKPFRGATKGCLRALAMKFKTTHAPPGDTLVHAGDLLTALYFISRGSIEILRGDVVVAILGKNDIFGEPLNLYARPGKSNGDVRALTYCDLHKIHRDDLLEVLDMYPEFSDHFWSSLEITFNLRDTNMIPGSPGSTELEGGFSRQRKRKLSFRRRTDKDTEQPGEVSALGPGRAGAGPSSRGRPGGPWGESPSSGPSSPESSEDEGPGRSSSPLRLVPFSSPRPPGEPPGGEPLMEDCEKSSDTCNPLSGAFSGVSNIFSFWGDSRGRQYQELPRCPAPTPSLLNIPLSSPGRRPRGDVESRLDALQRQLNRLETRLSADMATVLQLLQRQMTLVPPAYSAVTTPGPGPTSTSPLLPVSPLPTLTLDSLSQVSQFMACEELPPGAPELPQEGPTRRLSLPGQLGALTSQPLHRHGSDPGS
Source text: A patch-clamp assay on the QPatch© automated patch clamp system was employed to assesses whether compounds functionally enhance the cardiac delayed rectifier hERG (human ether-a-go-go-related gene) potassium channel. The assay measures electric the current passing through hERG channels that are heterologously expressed in a stable Chinese hamster ovary (CHO) cell line. Channels are opened by a hERG-specific voltage protocol and the compound effect is directly characterized by the activation of the hERG current. EC50 values are obtained from fitting 4-concentration dose response curves (1.1, 3.3, 10 & 30 uM) in triplicates at 4 different sections of the voltage protocol (steady state current amplitude at +10 mV, at +30 mV, peak tail current amplitude and tail current amplitude at 7 second).
On to `COc1c(F)cc(NCc2ccc3cc(-c4nn[nH]n4)oc3c2)cc1Br` [Example 1], for which the “% change@TL7 (*@3.3 uM)” value is listed as 166* %.
Take `CCOc1c(F)cc(NCc2ccc3cc(-c4nn[nH]n4)oc3c2)cc1Br` [Example 2]: the “% change@TL7 (*@3.3 uM)” value is on record as 126* %.
Consider `FC(F)(F)c1ccc(NCc2ccc3cc(-c4nn[nH]n4)oc3c2)cc1Br` [Example 3], for which the “% change@TL7 (*@3.3 uM)” value is 121* %.
Still for that read-out and setting: as for `FC(F)Oc1c(Br)cc(NCc2ccc3cc(-c4nn[nH]n4)oc3c2)cc1Br` [Example 4], the figure is 155* %.

The same data set, now with this note: increase of hERG tail current amplitude at 7 second (TL7); 10 uM; hERG stably expressed in CHO cells.
`CCOc1c(Cl)cc(NCc2cc3oc(-c4nnn[nH]4)cc3cc2Cl)cc1Cl` [Example 5]: the “% change@TL7@10 uM” value was 146%.
Still for that read-out and setting: as for `FC(F)(F)Oc1ccc(NCc2cc3oc(-c4nnn[nH]4)cc3cc2Cl)cc1C(F)(F)F` [Example 6], the figure is 264%.
Still for that read-out and setting: as for `FC(F)(F)COc1ccc(NCc2cc3oc(-c4nnn[nH]4)cc3cc2Cl)cc1Cl` [Example 8], the figure is 128%; as for `Fc1ccc(NCc2cc3oc(-c4nnn[nH]4)cc3cc2Cl)cc1OC(F)(F)F` [Example 9], 78%.
On the same count and under the same terms, under `CCOc1ccc(NCc2cc3oc(-c4nnn[nH]4)cc3cc2Cl)cc1C(F)(F)F` [Example 10] stands 285%; under `C=C(C)c1cc(NCc2ccc3cc(-c4nn[nH]n4)oc3c2)ccc1OC(F)(F)F` [Example 11], 129%; under `CCCc1ccc(NCc2cc3oc(-c4nnn[nH]4)cc3cc2Cl)cc1Cl` [Example 12], 85%.
With `FC(F)(F)Oc1cc(NCc2cc3oc(-c4nnn[nH]4)cc3cc2Cl)ccc1Cl` [Example 13], the “% change@TL7@10 uM” value worked out at 39%.
Still for that read-out and setting: under `FC(F)(F)c1ccc(NCc2cc3oc(-c4nnn[nH]4)cc3cc2Cl)cc1C(F)(F)F` [Example 14] stands 196%.
Same read-out and setting: as for `Clc1cc2cc(-c3nnn[nH]3)oc2cc1CNc1cc(Cl)c(Cl)c(Cl)c1` [Example 15], the figure is 162%; as for `CCCc1ccc(NCc2ccc3cc(-c4nnn[nH]4)oc3c2)cc1C(F)(F)F` [Example 16], 521%.
Still for that read-out and setting: as for `FC(F)Oc1ccc(NCc2ccc3cc(-c4nn[nH]n4)oc3c2)cc1Cl` [Example 17], the figure is 477%; as for `CC(C)Oc1ccc(NCc2cc3oc(-c4nnn[nH]4)cc3cc2Cl)cc1C(F)(F)F` [Example 18], 409%.
On to `Clc1cc(NCc2ccc3cc(-c4nn[nH]n4)oc3c2)cc(Cl)c1Cl` [Example 19], for which the “% change@TL7@10 uM” value stood at 394%.
Take `FC(F)(F)Sc1ccc(NCc2ccc3cc(-c4nn[nH]n4)oc3c2)cc1Cl` [Example 20]: the “% change@TL7@10 uM” value came out at 340%.
Consider `Cc1cc(NCc2ccc3cc(-c4nn[nH]n4)oc3c2)ccc1OC(F)(F)F` [Example 21], for which the “% change@TL7@10 uM” value was found to be 333%.
As to `FC(F)(F)COc1ccc(NCc2cc3oc(-c4nnn[nH]4)cc3cc2Cl)cc1C(F)(F)F` [Example 22], the “% change@TL7@10 uM” value was 328%.
The same measure, in the same setting: as for `FC(F)(F)Oc1ccc(NCc2ccc3cc(-c4nn[nH]n4)oc3c2)cc1C(F)(F)F` [Example 23], the figure is 290%.
Same read-out and setting: under `FC(F)Oc1ccc(NCc2cc3oc(-c4nnn[nH]4)cc3cc2Cl)cc1C(F)(F)F` [Example 25] stands 269%.
Turning to `CSc1ccc(NCc2ccc3cc(-c4nn[nH]n4)oc3c2)cc1C(F)(F)F` [Example 26], the “% change@TL7@10 uM” value is recorded as 267%.
Still for that read-out and setting: under `FC(F)(F)COc1ccc(NCc2ccc3cc(-c4nn[nH]n4)oc3c2)cc1C(F)(F)F` [Example 27] stands 261%; under `CSc1cccc(NCc2ccc3cc(-c4nn[nH]n4)oc3c2)c1` [Example 28], 260%; under `N#CCOc1ccc(NCc2cc3oc(-c4nnn[nH]4)cc3cc2Cl)cc1C(F)(F)F` [Example 29], 258%.
Turning to `O=C(c1ccc(NCc2ccc3cc(-c4nnn[nH]4)oc3c2)cc1)C(F)(F)F` [Example 30], the “% change@TL7@10 uM” value is listed as 228%.
As for `CCCc1ccc(NCc2cc3oc(-c4nnn[nH]4)cc3cc2Cl)cc1C(F)(F)F` [Example 31], the “% change@TL7@10 uM” value is 218%.
As for `Clc1ccc(NCc2ccc3cc(-c4nn[nH]n4)oc3c2)cc1` [Example 33], the “% change@TL7@10 uM” value came out at 192%.
Still for that read-out and setting: as for `CCCc1ccc(NCc2cc3oc(-c4nnn[nH]4)cc3cc2Cl)cc1Br` [Example 34], the figure is 191%; as for `Fc1cc(NCc2ccc3cc(-c4nn[nH]n4)oc3c2)cc(Br)c1F` [Example 35], 180%.
Still for that read-out and setting: under `FC(F)(F)Oc1ccc(NCc2cc3oc(-c4nnn[nH]4)cc3cc2Cl)cc1Br` [Example 36] stands 174%.
The same measure, in the same setting: under `FC(F)(F)Oc1ccc(NCc2ccc3cc(-c4nn[nH]n4)oc3c2)cc1Br` [Example 37, N-((2-(2H-tetrazol-5-yl)benzofuran-6-yl)methyl)-3-bromo-4-(trifluoromethoxy)aniline] stands 170%; under `FC(F)(F)Oc1ccc(NCc2ccc3c(C(F)(F)F)c(-c4nnn[nH]4)oc3c2)cc1C(F)(F)F` [Example 38], 164%; under `FC(F)(F)c1cc(NCc2ccc3cc(-c4nn[nH]n4)oc3c2)ccc1Br` [Example 39], 164%.
With `FC1(F)Oc2ccc(NCc3ccc4cc(-c5nn[nH]n5)oc4c3)cc2O1` [Example 40], the “% change@TL7@10 uM” value is 161%.
As for `FC(F)(F)Oc1ccc(NCc2ccc3cc(-c4nn[nH]n4)oc3c2)cc1OC(F)(F)F` [Example 41], the “% change@TL7@10 uM” value was determined as 160%.
On the same count and under the same terms, under `CCCc1ccc(NCc2ccc3cc(-c4nnn[nH]4)oc3c2)cc1Br` [Example 42] stands 159%.
Regarding `Fc1cc(NCc2ccc3cc(-c4nn[nH]n4)oc3c2)ccc1OC(F)(F)F` [Example 43], the “% change@TL7@10 uM” value is on record as 148%.
With `FC(F)(F)COc1ccc(NCc2ccc3cc(-c4nn[nH]n4)oc3c2)cc1Cl` [Example 44], the “% change@TL7@10 uM” value is listed as 146%.
As for `Clc1cc(NNCc2ccc3cc(-c4nn[nH]n4)oc3c2)cc(Cl)c1Cl` [Example 45], the “% change@TL7@10 uM” value worked out at 145%.
For the compound `FC(F)(F)Oc1ccc(NCc2ccc3cc(-c4nn[nH]n4)oc3c2)cc1Cl` [Example 46], the “% change@TL7@10 uM” value was determined as 139%.
Regarding `FC(F)(F)Oc1ccc(NCc2ccc3c(C(F)(F)F)c(-c4nnn[nH]4)oc3c2)cc1Br` [Example 47], the “% change@TL7@10 uM” value is 131%.
Take `FC(F)(F)Oc1cc(NCc2ccc3cc(-c4nn[nH]n4)oc3c2)ccc1Br` [Example 48]: the “% change@TL7@10 uM” value is recorded as 123%.
Regarding `CCOc1c(Cl)cc(NCc2ccc3c(C(F)(F)F)c(-c4nnn[nH]4)oc3c2)cc1Cl` [Example 49], the “% change@TL7@10 uM” value amounted to 106%.
In the case of `CCCc1ccc(NCc2ccc3c(C)c(-c4nnn[nH]4)oc3c2)cc1C(F)(F)F` [Example 51], the “% change@TL7@10 uM” value came to 99%.
On the same count and under the same terms, under `FC(F)(F)c1ccc(NCc2ccc3cc(-c4nn[nH]n4)oc3c2)cc1C(F)(F)F` [Example 52] stands 95%; under `Cc1c(-c2nnn[nH]2)oc2cc(CNc3ccc(OC(F)(F)F)c(Br)c3)ccc12` [Example 53], 95%.
As for `FC(F)(F)Oc1ccc(NCc2ccc3c(C(F)(F)F)c(-c4nnn[nH]4)oc3c2)cc1Cl` [Example 54], the “% change@TL7@10 uM” value turned out to be 94%.
Still for that read-out and setting: as for `CCCc1ccc(NCc2ccc3c(C(F)(F)F)c(-c4nnn[nH]4)oc3c2)cc1C(F)(F)F` [Example 55], the figure is 90%.
Same read-out and setting: under `CCOc1ccc(NCc2ccc3c(C(F)(F)F)c(-c4nnn[nH]4)oc3c2)cc1C(F)(F)F` [Example 56] stands 88%; under `CC(C)Oc1ccc(NCc2ccc3c(C(F)(F)F)c(-c4nnn[nH]4)oc3c2)cc1C(F)(F)F` [Example 57], 76%.
On the same count and under the same terms, under `Fc1ccc(NCc2ccc3cc(-c4nn[nH]n4)oc3c2)cc1CC(F)(F)F` [Example 58] stands 71%; under `Brc1cccc(NCc2ccc3cc(-c4nn[nH]n4)oc3c2)c1` [Example 59], 61%.
Regarding `FC(F)Oc1ccc(NCc2ccc3c(C(F)(F)F)c(-c4nnn[nH]4)oc3c2)cc1C(F)(F)F` [Example 60], the “% change@TL7@10 uM” value worked out at 58%.
For `FC(F)(F)c1ccc(NCc2ccc3c(C(F)(F)F)c(-c4nnn[nH]4)oc3c2)cc1Cl` [Example 61], the “% change@TL7@10 uM” value stood at 47%.
Still for that read-out and setting: under `COc1cc(NCc2ccc3cc(-c4nn[nH]n4)oc3c2)cc(OC)c1OC` [Example 62] stands 43%.
On to `FC(F)(F)Oc1ccc(NCc2ccc3cc(-c4nn[nH]n4)oc3c2)cc1` [Example 63], for which the “% change@TL7@10 uM” value was 34%.
Take `FC(F)(F)Sc1ccc(NCc2ccc3oc(-c4nnn[nH]4)cc3c2)cc1Cl` [Example 64]: the “% change@TL7@10 uM” value was 348%.
With `FC(F)(F)Oc1ccc(NCc2ccc3oc(-c4nnn[nH]4)cc3c2)cc1Cl` [Example 65], the “% change@TL7@10 uM” value was determined as 284%.
Same read-out and setting: as for `CCCc1ccc(NCc2ccc3oc(-c4nnn[nH]4)cc3c2)cc1C(F)(F)F` [Example 66], the figure is 261%; as for `FC1(F)Oc2ccc(NCc3ccc4oc(-c5nnn[nH]5)cc4c3)cc2O1` [Example 67], 247%; as for `CCCc1cc(NCc2ccc3oc(-c4nnn[nH]4)cc3c2)ccc1Cl` [Example 68], 224%.
`CCCc1c(C)cc(NCc2ccc3oc(-c4nnn[nH]4)cc3c2)cc1Cl` [Example 69]: the “% change@TL7@10 uM” value was determined as 221%.
For `Cc1c(-c2nnn[nH]2)oc2ccc(CNc3ccc(SC(F)(F)F)c(Cl)c3)cc12` [Example 70], the “% change@TL7@10 uM” value was 200%.
For `CCCc1ccc(NCc2ccc3oc(-c4nnn[nH]4)cc3c2)cc1Cl` [Example 71], the “% change@TL7@10 uM” value was found to be 193%.
Still for that read-out and setting: under `Fc1ccc(NCc2ccc3oc(-c4nnn[nH]4)cc3c2)cc1OC(F)(F)F` [Example 72] stands 176%; under `CC(Nc1cc(Cl)c(Cl)c(Cl)c1)c1ccc2oc(-c3nnn[nH]3)cc2c1` (stereo not drawn) [Example 73], 132%.
